These results are taken from patent US12503438B2, “Compounds for the treatment of kinase-dependent disorders” (Exelixis, Inc., priority 2019, dated 2025).

pIC50: −log10 of the molar value.

Test [1] deals with T1, Human Mer (Homo sapiens, UniProt Q12866).
T1 construct: Human Mer (residues R557-E882 with H628Q and R794A, 0.7 nM); purchased Eurofins Pharma Discovery Services UK Limited (KinaseProfiler service)
T1 sequence (Q12866 557-882 limits assumed): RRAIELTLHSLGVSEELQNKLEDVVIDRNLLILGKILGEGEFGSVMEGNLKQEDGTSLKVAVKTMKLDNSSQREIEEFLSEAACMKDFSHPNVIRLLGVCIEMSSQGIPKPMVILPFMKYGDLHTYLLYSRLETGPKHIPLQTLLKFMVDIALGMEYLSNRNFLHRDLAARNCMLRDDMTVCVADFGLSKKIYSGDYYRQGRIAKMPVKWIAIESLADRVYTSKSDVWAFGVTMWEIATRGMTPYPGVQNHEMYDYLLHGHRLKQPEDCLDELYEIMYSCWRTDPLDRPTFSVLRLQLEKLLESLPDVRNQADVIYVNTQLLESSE
Nature of the test: Human Mer kinase assay (33P-phosphoryl transfer radiometric, KinaseProfiler). The settings on record: biochemical activity; 10 μM ATP. The procedure: Kinase activity and compound inhibition were investigated using the ^33P-Phosphoryl transfer radiometric kinase assay, performed using the KinaseProfiler™ service of Eurofins Pharma Discovery Services UK Limited. Dose-response experiments were performed using nine compound concentrations in a 96-well microtiter plate. For each assay, all compounds were prepared to a 50× final assay concentration (50 μM) in 100% DMSO, then diluted in a half-log series, with the final top concentration at 1 μM. This working stock of the compound was added to the assay well as the first component in the reaction, followed by the remaining components as detailed in the following assay protocols below. The positive control wells (100% kinase activity) contain all components of the reaction including 2% DMSO (control for solvent effects), except the compound of interest. Blank wells contain all components of the reaction, with the reference inhibitor, staurosporine. This reference compound was used to abolish kinase activity and generated the 0% kinase activity base-line. IC50 values were calculated by nonlinear regression analysis using the sigmoidal dose-response (variable slope) curve fit on XLFit version 5.3 (ID Business Solutions).
Human Mer (residues R557-E882 with H628Q and R794A, 0.7 nM) was incubated with 8 mM MOPS pH 7.0, 0.2 mM EDTA, 30 mM NaCl, 250 μM GGMEDIYFEFMGGKKK, 10 mM magnesium acetate and 10 μM [y-^33P-ATP]. The reaction was initiated by the addition of the Mg/ATP mix. After incubation for 40 minutes at room temperature, the reaction was stopped by the addition of phosphoric acid to a concentration of 0.5%. A reaction aliquot of 10 μL was then spotted onto a P30 filtermat and washed four times for 4 minutes in 0.425% phosphoric acid and once in methanol prior to drying and scintillation counting. Incorporated ^33P was measured using the Wallac Microbeta scintillation counter (Perkin Elmer).

In test [2] the target is KDR (Homo sapiens, UniProt P35968). Nature of the test: KDR autophosphorylation ELISA in HUVEC cells. It counts as cell-based. The arrangement: endogenous in cells; host or cells: HUVEC (Lonza #C2519A). The settings on record: cellular activity, VEGF165-stimulated, phospho-KDR ELISA. Put shortly: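 Compound pretreatment (1 h, 0.3% DMSO) of serum-starved HUVEC preceded a 5 min pulse of 100 ng/mL VEGF165, after which cells were lysed. Phospho-KDR was quantified by ELISA relative to stimulated and unstimulated controls.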
KDR, sequence (P35968 20-1356): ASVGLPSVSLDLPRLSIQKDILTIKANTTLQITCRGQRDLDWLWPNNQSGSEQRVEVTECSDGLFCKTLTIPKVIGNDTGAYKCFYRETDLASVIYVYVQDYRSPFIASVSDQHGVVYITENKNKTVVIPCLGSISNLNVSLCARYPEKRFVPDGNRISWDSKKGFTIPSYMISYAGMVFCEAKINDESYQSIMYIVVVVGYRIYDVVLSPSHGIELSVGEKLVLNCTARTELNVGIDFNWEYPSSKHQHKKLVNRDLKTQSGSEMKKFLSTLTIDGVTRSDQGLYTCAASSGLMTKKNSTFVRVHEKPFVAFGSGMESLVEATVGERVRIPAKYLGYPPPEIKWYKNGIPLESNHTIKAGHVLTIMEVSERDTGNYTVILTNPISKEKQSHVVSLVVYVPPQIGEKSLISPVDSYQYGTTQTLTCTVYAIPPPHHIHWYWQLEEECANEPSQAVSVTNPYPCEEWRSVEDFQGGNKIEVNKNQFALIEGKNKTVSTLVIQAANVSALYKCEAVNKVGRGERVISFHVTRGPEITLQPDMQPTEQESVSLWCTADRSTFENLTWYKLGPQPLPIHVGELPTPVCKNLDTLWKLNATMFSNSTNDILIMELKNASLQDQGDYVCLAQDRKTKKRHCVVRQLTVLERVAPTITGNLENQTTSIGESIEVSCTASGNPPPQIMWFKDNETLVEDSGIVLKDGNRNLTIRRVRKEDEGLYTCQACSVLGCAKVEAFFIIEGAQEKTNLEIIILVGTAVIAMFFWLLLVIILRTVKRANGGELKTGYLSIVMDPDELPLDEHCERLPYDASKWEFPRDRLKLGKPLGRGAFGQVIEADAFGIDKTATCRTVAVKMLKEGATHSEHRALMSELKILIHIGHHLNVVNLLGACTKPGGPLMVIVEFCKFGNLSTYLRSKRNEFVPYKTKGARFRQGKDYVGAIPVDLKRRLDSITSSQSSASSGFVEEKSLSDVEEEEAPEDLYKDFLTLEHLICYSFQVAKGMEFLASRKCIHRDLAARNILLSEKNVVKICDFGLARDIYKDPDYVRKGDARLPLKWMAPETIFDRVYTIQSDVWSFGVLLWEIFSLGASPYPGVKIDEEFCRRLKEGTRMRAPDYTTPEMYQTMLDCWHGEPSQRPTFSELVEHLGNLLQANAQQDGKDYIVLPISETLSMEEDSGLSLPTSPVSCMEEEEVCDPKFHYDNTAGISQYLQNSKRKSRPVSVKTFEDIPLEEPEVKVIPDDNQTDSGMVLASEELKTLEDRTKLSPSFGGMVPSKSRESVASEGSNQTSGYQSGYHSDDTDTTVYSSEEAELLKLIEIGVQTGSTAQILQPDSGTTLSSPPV

For test [3], the target named is Met (Homo sapiens, UniProt P08581). Nature of the test: Met autophosphorylation ELISA in PC-3 cells. It counts as cell-based. The arrangement: endogenous in cells; host or cells: PC-3 prostate cancer cells (ATCC #CRL-1435). The settings on record: cellular activity, HGF-stimulated, phospho-Met ELISA, read-out: c-Met IC50. Put shortly: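 PC-3 cells serum-starved 3 h, treated 1 h with 8-point compound series (0.3% DMSO), then stimulated with 100 ng/mL human HGF for 10 min. Lysate phospho-Met (panTyr) measured by sandwich ELISA; IC50 from 4-parameter logistic fit against DMSO and reference-inhibitor controls.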
Met, sequence (P08581 25-1390): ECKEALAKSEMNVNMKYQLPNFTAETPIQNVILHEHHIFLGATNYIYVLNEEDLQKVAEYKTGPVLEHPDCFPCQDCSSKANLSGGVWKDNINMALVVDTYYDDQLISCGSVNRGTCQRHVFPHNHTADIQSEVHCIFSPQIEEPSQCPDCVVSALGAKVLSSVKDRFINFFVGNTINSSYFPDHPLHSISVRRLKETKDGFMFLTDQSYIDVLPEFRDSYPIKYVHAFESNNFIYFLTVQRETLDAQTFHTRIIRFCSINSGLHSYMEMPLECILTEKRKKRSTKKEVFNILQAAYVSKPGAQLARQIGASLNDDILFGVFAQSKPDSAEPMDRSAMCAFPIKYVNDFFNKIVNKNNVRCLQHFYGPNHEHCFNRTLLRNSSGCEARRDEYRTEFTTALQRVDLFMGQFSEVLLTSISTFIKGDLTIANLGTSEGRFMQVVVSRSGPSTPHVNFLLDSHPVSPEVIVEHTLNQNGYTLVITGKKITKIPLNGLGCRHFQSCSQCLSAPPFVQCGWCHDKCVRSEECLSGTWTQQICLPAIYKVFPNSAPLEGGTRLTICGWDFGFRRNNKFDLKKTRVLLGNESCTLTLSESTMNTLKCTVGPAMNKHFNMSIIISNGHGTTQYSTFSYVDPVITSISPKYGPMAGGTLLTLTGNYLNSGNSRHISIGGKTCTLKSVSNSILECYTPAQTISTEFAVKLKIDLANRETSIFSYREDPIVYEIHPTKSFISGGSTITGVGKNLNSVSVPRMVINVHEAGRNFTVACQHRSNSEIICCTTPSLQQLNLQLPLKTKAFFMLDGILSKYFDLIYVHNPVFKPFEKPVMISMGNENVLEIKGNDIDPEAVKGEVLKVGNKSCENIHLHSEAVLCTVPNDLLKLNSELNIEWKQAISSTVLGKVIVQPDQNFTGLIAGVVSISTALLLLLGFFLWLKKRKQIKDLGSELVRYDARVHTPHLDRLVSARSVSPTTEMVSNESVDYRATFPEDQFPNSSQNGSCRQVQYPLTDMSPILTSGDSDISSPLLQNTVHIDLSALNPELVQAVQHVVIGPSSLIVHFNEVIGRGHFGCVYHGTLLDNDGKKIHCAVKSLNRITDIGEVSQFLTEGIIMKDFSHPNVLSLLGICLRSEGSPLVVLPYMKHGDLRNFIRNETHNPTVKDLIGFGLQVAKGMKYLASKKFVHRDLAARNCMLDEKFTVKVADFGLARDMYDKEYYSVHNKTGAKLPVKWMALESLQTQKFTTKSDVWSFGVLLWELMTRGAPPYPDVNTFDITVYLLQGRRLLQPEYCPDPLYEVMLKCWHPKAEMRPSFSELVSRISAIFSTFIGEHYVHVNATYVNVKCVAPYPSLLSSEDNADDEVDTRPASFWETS

For `Cn1ccc(-c2ccc3c(Oc4ccc(NC(=O)C5(C(=O)Nc6ccc(F)cc6)CC5)cc4)ccnc3c2)n1` [Compound 17, 1-N′-(4-Fluorophenyl)-1-N-[4-[7-(1-methylpyrazol-3-yl)quinolin-4-yl]oxyphenyl]cyclopropane-1,1-dicarboxamide], the pIC50 in test [1] was at least 8.00; in test [2] it was at least 8.00; in test [3], 7.00 to 8.00.
Take `O=C(Nc1ccc(F)cc1)C1(C(=O)Nc2ccc(Oc3ccnc4cc(-c5cnn(C(F)F)c5)ccc34)cc2)CC1` [Compound 13, 1-N-[4-[7-[1-(Difluoromethyl)pyrazol-4-yl]quinolin-4-yl]oxyphenyl]-1-N′-(4-fluorophenyl)cyclopropane-1,1-dicarboxamide]: the negative-log IC50 (pIC50) in test [1] was at least 8.00; in test [2], at least 8.00; in test [3], 7.00 to 8.00.
Turning to `O=C(Nc1ccc(F)cc1)C1(C(=O)Nc2ccc(Oc3ccnc4cc(-c5ccnnc5)ccc34)cc2)CC1` [Compound 28, 1-N′-(4-Fluorophenyl)-1-N-[4-(7-pyridazin-4-ylquinolin-4-yl)oxyphenyl]cyclopropane-1,1-dicarboxamide], the pIC50 is at least 8.00 in test [1], 7.00 to 8.00 in test [2] and at least 8.00 in test [3].
For `Cn1cc(-c2ccc3c(Oc4ccc(NC(=O)C5(C(=O)Nc6ccc(F)cc6)CC5)cc4)ccnc3c2)cn1` [Compound 11, 1-N′-(4-Fluorophenyl)-1-N-[4-[7-(1-methylpyrazol-4-yl)quinolin-4-yl]oxyphenyl]cyclopropane-1,1-dicarboxamide], the pIC50 in test [1], in test [2] and in test [3] was at least 8.00 throughout.
Regarding `O=C(Nc1ccc(F)cc1)C1(C(=O)Nc2ccc(Oc3ccnc4cc(-c5cnn(CCO)c5)ccc34)cc2)CC1` [Compound 18, 1-N′-(4-Fluorophenyl)-1-N-[4-[7-[1-(2-hydroxyethyl)pyrazol-4-yl]quinolin-4-yl]oxyphenyl]cyclopropane-1,1-dicarboxamide], the pIC50 in test [1], in test [2] and in test [3] was at least 8.00 each time.
For `O=C(Nc1ccc(F)cc1)C1(C(=O)Nc2ccc(Oc3ccnc4cc(-c5cnn(C(F)(F)F)c5)ccc34)cc2)CC1` [Compound 12, 1-N′-(4-Fluorophenyl)-1-N-[4-[7-[1-(trifluoromethyl)pyrazol-4-yl]quinolin-4-yl]oxyphenyl]cyclopropane-1,1-dicarboxamide], the pIC50 in test [1] was at least 8.00; in test [2], 7.00 to 8.00; in test [3], 7.00 to 8.00.
In the case of `O=C(Nc1ccc(F)cc1)C1(C(=O)Nc2cc(F)c(Oc3ccnc4cc(-c5cccnc5)ccc34)cc2F)CC1` [Compound 115, 1-N′-[2,5-Difluoro-4-(7-pyridin-3-ylquinolin-4-yl)oxyphenyl]-1-N-(4-fluorophenyl)cyclopropane-1,1-dicarboxamide], the pIC50 in test [2] is at least 8.00; in test [3], 7.00 to 8.00.
The like results for `Cn1cc(-c2ccc3c(Oc4ccc(NC(=O)C5(C(=O)Nc6ccc(F)cc6)CC5)cc4)ccnc3c2)ccc1=O` [Compound 119, 1-N′-(4-Fluorophenyl)-1-N-[4-[7-(1-methyl-6-oxopyridin-3-yl)quinolin-4-yl]oxyphenyl]cyclopropane-1,1-dicarboxamide] were, in that order, at least 8.00 and 7.00 to 8.00.
As to `COc1cc(-c2ccc3c(Oc4ccc(NC(=O)C5(C(=O)Nc6ccc(F)cc6)CC5)cc4)ccnc3c2)ccn1` [Compound 31, 1-N′-(4-Fluorophenyl)-1-N-[4-[7-(2-methoxypyridin-4-yl)quinolin-4-yl]oxyphenyl]cyclopropane-1,1-dicarboxamide], the pIC50 in test [2] and in test [3] was 7.00 to 8.00 throughout.
Consider `Cc1cc2c(Oc3cc(Cl)c(NC(=O)C4(C(=O)Nc5ccc(F)cc5)CC4)cc3F)ccnc2cc1-c1cnn(C)c1` [Compound 112, 1-N′-[2-Chloro-5-fluoro-4-[6-methyl-7-(1-methylpyrazol-4-yl)quinolin-4-yl]oxyphenyl]-1-N-(4-fluorophenyl)cyclopropane-1,1-dicarboxamide], for which the pIC50 was below 6.52 in test [2] and 7.00 to 8.00 in test [3].
The like results for `Cc1cncc(-c2ccc3c(Oc4ccc(NC(=O)C5(C(=O)Nc6ccc(F)cc6)CC5)cc4)ccnc3c2)c1` [Compound 46, 1-N′-(4-Fluorophenyl)-1-N-[4-[7-(5-methylpyridin-3-yl)quinolin-4-yl]oxyphenyl]cyclopropane-1,1-dicarboxamide] were, in that order, 7.00 to 8.00 and 6.52 to 7.00.
The corresponding values for `N#Cc1ccc(-c2ccc3c(Oc4ccc(NC(=O)C5(C(=O)Nc6ccc(F)cc6)CC5)cc4)ccnc3c2)cn1` [Compound 42, 1-N-[4-[7-(6-Cyanopyridin-3-yl)quinolin-4-yl]oxyphenyl]-1-N′-(4-fluorophenyl)cyclopropane-1,1-dicarboxamide] are 7.00 to 8.00 and 7.00 to 8.00.
The corresponding values for `Cc1cc2c(Oc3c(F)cc(NC(=O)C4(C(=O)Nc5ccc(F)cc5)CC4)c(F)c3F)ccnc2cc1-c1cnn(C)c1` [Compound 110, 1-N-(4-Fluorophenyl)-1-N′-[2,3,5-trifluoro-4-[6-methyl-7-(1-methylpyrazol-4-yl)quinolin-4-yl]oxyphenyl]cyclopropane-1,1-dicarboxamide] are 6.52 to 7.00 and 7.00 to 8.00.
Regarding `O=C(Nc1ccc(F)cc1)C1(C(=O)Nc2ccc(Oc3ccnc4cc(-c5ccncn5)ccc34)cc2)CC1` [Compound 114, 1-N′-(4-Fluorophenyl)-1-N-[4-(7-pyrimidin-4-ylquinolin-4-yl)oxyphenyl]cyclopropane-1,1-dicarboxamide], the figures for the pIC50 in test [2] and in test [3] were at least 8.00 and 7.00 to 8.00, respectively.
The like results for `O=C(Nc1ccc(F)cc1)C1(C(=O)Nc2ccc(Oc3ccnc4cc(-c5cc6n(n5)CCC6)ccc34)cc2)CC1` [Compound 124, 1-N-[4-[7-(5,6-Dihydro-4H-pyrrolo[1,2-b]pyrazol-2-yl)quinolin-4-yl]oxyphenyl]-1-N′-(4-fluorophenyl)cyclopropane-1,1-dicarboxamide] were, in that order, 7.00 to 8.00 and 7.00 to 8.00.
In the case of `O=C(Nc1ccc(F)cc1)C1(C(=O)Nc2ccc(Oc3ccnc4cc(-c5ccnc(F)c5)ccc34)cc2)CC1` [Compound 33, 1-N′-(4-Fluorophenyl)-1-N-[4-[7-(2-fluoropyridin-4-yl)quinolin-4-yl]oxyphenyl]cyclopropane-1,1-dicarboxamide], the pIC50 in test [2] and in test [3] was 7.00 to 8.00 throughout.
Consider `O=C(Nc1ccc(F)cc1)C1(C(=O)Nc2ccc(Oc3ccnc4cc(-c5cncc(F)c5)ccc34)cc2)CC1` [Compound 45, 1-N′-(4-Fluorophenyl)-1-N-[4-[7-(5-fluoropyridin-3-yl)quinolin-4-yl]oxyphenyl]cyclopropane-1,1-dicarboxamide], for which the pIC50 in test [2] and in test [3] was 6.52 to 7.00 each time.
In the case of `Nc1ccc(-c2ccc3c(Oc4ccc(NC(=O)C5(C(=O)Nc6ccc(F)cc6)CC5)cc4)ccnc3c2)cn1` [Compound 38, 1-N-[4-[7-(6-Aminopyridin-3-yl)quinolin-4-yl]oxyphenyl]-1-N′-(4-fluorophenyl)cyclopropane-1,1-dicarboxamide], the pIC50 in test [2] and in test [3] was 7.00 to 8.00 each time.
On to `COc1cncc(-c2ccc3c(Oc4ccc(NC(=O)C5(C(=O)Nc6ccc(F)cc6)CC5)cc4)ccnc3c2)c1` [Compound 47, 1-N′-(4-Fluorophenyl)-1-N-[4-[7-(5-methoxypyridin-3-yl)quinolin-4-yl]oxyphenyl]cyclopropane-1,1-dicarboxamide], for which the pIC50 in test [2] and in test [3] was 6.52 to 7.00 each time.
